Laboratory results as given in ChEMBL document CHEMBL1909046, “DrugMatrix in vitro pharmacology data”.

Experiments:
[1] = DRUGMATRIX: ATPase, Na+/K+ enzyme inhibition (substrate: ATP); type: tissue-based, Sus scrofa, Heart; conditions: Not Active = under 50% inhibition at 10 µM
[2] = target: Sodium-dependent dopamine transporter (Homo sapiens, UniProt Q01959); experiment: DRUGMATRIX: Dopamine Transporter radioligand binding (ligand: [125I] RTI-55); type: cell membranes, CHO-K1, Membrane; conditions: cho-k1; Not Active = under 50% inhibition at 10 µM
D(4) dopamine receptor = target: T1, D(4) dopamine receptor (Homo sapiens, UniProt P21917); experiment: DRUGMATRIX: Dopamine D4.2 radioligand binding (ligand: [3H] Spiperone); type: cell membranes, CHO-K1, Membrane; conditions: cho-k1; Not Active = under 50% inhibition at 10 µM
T1 sequence (P21917 whole entry): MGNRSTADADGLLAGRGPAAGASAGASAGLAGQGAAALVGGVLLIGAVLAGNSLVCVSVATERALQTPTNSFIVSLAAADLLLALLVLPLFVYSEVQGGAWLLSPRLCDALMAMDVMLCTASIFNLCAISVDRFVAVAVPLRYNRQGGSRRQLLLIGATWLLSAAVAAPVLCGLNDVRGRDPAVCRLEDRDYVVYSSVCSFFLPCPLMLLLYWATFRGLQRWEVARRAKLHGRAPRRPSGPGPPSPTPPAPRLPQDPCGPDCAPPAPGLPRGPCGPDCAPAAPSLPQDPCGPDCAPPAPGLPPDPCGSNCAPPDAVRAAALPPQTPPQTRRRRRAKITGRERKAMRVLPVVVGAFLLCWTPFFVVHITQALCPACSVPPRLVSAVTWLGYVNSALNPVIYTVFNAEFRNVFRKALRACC

[3] = target: T2, Vasoactive intestinal polypeptide receptor 1 (Homo sapiens, UniProt P32241); type: cell membranes, Membrane; conditions: ht-29; further: in other assays of this panel Not Active means under 50% inhibition at 10 µM
T2 sequence (P32241 whole entry): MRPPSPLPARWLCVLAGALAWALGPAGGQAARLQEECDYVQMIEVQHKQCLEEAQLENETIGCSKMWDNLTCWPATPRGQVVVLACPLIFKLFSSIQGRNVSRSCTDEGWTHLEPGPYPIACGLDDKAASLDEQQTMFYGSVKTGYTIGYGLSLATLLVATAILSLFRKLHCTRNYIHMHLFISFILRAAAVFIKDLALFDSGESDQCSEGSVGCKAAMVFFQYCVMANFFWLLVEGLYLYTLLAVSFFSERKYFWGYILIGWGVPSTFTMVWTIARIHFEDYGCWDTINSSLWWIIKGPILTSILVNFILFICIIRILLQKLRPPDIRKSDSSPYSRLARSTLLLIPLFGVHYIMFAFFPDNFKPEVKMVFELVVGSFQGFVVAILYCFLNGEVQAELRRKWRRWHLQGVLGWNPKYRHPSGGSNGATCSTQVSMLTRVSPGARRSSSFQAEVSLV

[4] = DRUGMATRIX: beta-Lactamase enzyme inhibition (substrate: Nitrocefin); parameters: species or system Bacillus cereus; conditions: Not Active = under 50% inhibition at 10 µM
Mu-type opioid receptor = Mu-type opioid receptor (Homo sapiens, UniProt P35372); experiment: DRUGMATRIX: Opiate mu (OP3, MOP) radioligand binding (ligand: [3H] Diprenorphine); type: cell membranes, CHO-K1, Membrane; conditions: cho-k1; Not Active = under 50% inhibition at 10 µM
[5] = target: Prostaglandin G/H synthase 1 (Homo sapiens, UniProt P23219); experiment: biochemical; type: tissue-based, Platelet; conditions: platelet;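 further: inhibition of COX-1 enzyme activity, with arachidonic acid supplied as substrate; in other assays of this panel Not Active means under 50% inhibition at 10 µM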
Sequence of Prostaglandin G/H synthase 1 (P23219 whole entry): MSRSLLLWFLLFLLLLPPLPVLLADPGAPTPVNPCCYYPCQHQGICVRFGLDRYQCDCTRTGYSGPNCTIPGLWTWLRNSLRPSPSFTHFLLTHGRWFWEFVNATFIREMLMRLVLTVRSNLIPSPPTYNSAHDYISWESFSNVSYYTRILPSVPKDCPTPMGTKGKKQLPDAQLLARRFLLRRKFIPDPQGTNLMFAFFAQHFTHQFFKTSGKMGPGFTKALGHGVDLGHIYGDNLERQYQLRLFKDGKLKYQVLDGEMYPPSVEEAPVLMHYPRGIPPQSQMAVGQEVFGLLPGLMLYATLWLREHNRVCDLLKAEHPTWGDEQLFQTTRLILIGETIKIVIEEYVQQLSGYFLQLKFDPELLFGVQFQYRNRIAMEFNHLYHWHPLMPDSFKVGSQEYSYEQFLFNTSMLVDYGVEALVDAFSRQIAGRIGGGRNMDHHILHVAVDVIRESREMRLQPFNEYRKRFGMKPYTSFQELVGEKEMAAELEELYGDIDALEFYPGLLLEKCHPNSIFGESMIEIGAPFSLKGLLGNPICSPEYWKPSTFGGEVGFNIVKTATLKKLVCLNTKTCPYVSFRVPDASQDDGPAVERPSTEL

Sequence of Mu-type opioid receptor (P35372 whole entry): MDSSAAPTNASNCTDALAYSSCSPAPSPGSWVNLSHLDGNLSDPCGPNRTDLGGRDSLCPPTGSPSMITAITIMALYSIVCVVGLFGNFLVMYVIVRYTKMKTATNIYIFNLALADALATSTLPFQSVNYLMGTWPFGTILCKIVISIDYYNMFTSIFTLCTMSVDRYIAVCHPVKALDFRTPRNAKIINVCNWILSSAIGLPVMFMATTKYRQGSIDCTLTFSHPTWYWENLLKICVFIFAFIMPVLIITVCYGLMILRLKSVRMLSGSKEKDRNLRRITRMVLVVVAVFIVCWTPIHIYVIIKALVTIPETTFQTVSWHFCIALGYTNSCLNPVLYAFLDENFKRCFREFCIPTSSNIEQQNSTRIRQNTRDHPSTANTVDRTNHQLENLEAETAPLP
Sequence of Sodium-dependent dopamine transporter (Q01959 whole entry): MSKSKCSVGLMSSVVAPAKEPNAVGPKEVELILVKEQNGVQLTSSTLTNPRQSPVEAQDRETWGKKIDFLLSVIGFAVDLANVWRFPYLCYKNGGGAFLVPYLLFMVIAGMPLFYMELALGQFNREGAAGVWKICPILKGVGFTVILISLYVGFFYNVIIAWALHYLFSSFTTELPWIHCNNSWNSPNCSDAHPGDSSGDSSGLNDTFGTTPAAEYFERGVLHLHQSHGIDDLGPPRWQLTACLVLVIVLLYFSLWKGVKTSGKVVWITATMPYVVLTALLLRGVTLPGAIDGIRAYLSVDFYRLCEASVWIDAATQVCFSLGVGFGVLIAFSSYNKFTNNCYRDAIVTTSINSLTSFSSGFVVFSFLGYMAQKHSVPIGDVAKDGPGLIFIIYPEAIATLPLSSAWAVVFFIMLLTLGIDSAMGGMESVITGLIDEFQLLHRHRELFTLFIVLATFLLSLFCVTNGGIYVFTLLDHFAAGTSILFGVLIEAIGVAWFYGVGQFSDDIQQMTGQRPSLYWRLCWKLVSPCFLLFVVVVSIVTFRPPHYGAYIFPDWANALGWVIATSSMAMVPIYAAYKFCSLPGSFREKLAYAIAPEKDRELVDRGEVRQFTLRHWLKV

Cc1ccc(N(CC2=NCCN2)c2cccc(O)c2)cc1 [PHENTOLAMINE]
Not Active: IC50 [1] | Ki [1] | IC50 [2] | IC50 (D(4) dopamine receptor) | IC50 [3] | IC50 [4] | Ki [4] | IC50 (Mu-type opioid receptor) | IC50 [5]

CNNCc1ccc(C(=O)NC(C)C)cc1 [PROCARBAZINE]
Not Active: IC50 [1] | Ki [1] | IC50 [2] | IC50 (D(4) dopamine receptor) | IC50 [3] | IC50 [4] | Ki [4] | IC50 (Mu-type opioid receptor) | IC50 [5]

CN(C)CCCN1c2ccccc2Sc2ccccc21 [PROMAZINE]
Not Active: IC50 [1] | Ki [1] | IC50 [2] | IC50 (D(4) dopamine receptor) | IC50 [3] | IC50 [4] | Ki [4] | IC50 (Mu-type opioid receptor) | IC50 [5]

CC(O)CO (stereo unspecified) [PROPYLENE GLYCOL]
Not Active: IC50 [1] | Ki [1] | IC50 [2] | IC50 (D(4) dopamine receptor) | IC50 [3] | IC50 [4] | Ki [4] | IC50 (Mu-type opioid receptor) | IC50 [5]
